Tests used:
[1] = system: MCP-1 induced calcium ion influx in THP-1 cells; experiment: MCP-1 Induced Calcium Mobilization in THP-1 Cells; type: cell-based; conditions: Homo sapiens; for IC50: THP-1, THP-1 cells, 0.2 μM MCP-1, FLIPR, read-out: Inhibition of MCP-1 Induced Calcium Ion Influx IC50; for inhibition at 25 µM: THP-1, test concentration of 25 μM, given where an IC50 value was not obtained, read-out: Inhibition of MCP-1 Induced Calcium Ion Influx, percent inhibition
Procedure: THP-1 cells were plated at a density of 8×10^5 cells/mL (100 μL/well) into poly-D lysine coated clear bottom, black 96 well plates. The cells were loaded with 5 μM fluo-3 for 45 minutes. The fluo-3 washed off and cells were incubated with varying concentrations of test compound for 15 minutes. The change in calcium ion concentration upon addition of 0.2 μM MCP-1 was determined using FLIPR and compared to vehicle.
Table 2 lists IC50 values for inhibition of MCP-1 induced influx of calcium ions.

[2] = system: MCP-1 induced chemotaxis of THP-1 cells; experiment: MCP-1 Induced Chemotaxis in THP-1 Cells; type: cell-based; conditions: Homo sapiens, MCP-1 0.01 μg/mL, 3 hours at 37° C., read-out: Inhibition of MCP-1 Induced Chemotaxis IC50
Procedure: MCP-1 induced chemotaxis was run in a 24-well chemotaxis chamber. MCP-1 (0.01 μg/mL) was added to the lower chamber and 100 μL of THP-1 cells (1×10^7 cell/mL) was added to the top chamber. Varying concentrations of test compound were added to the top and bottom chambers. Cells were allowed to chemotax for 3 hours at 37° C. and 5% CO2. An aliquot of the cells that had migrated to the bottom chamber was taken and counted then compared to vehicle.
Table 3 lists IC50 values for inhibition of MCP-1 induced chemotaxis.

CCR2 = biological target: T1, CCR2 (Homo sapiens, UniProt P41597); experiment: MCP-1 Receptor Binding Assay in THP-1 Cells; conditions: for IC50: THP-1 cells, 0.5 nM 125I labeled MCP-1, 2 hours at 30° C., read-out: Inhibition of MCP-1 Binding IC50; for inhibition at 25 µM: test concentration of 25 μM, given where an IC50 value was not obtained, read-out: Inhibition of MCP-1 Binding, percent inhibition
T1 construct: host or cells: THP-1 cells
T1 sequence (P41597 1-360 isoform P41597-2): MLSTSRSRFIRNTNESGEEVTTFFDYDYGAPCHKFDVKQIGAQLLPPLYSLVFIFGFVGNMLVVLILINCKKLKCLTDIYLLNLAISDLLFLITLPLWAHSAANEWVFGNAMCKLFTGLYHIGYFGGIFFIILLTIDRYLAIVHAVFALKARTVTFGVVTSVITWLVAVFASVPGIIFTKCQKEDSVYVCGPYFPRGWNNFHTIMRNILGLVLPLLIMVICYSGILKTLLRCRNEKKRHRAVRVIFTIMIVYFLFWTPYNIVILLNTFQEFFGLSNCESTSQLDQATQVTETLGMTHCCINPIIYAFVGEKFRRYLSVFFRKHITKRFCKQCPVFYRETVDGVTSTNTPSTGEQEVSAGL
Method in brief: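 Whole THP-1 cells incubated 2 h at 30° C with 0.5 nM 125I-MCP-1 and varying compound concentrations; bound radioactivity harvested on filters and counted by scintillation. Nonspecific binding with 1 μM cold MCP-1; IC50 for inhibition of binding versus vehicle.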

| Compound | IC50 [1] | IC50 [2] | IC50 (CCR2) | inhibition at 25 µM (CCR2) | inhibition at 25 µM [1] |
| --- | --- | --- | --- | --- | --- |
| COc1ccc(C2CCN(CC(O)C3(O)CCN(C(=O)Nc4ccc(Cl)c(Cl)c4)CC3)CC2)cc1 (stereo not shown) [Compound 116, 4-hydroxy-4-{1-hydroxy-2-[4-(4-methoxy-phenyl)-piperidin-1-yl]-ethyl}-piperidine-1-carboxylic acid (3,4-dichloro-phenyl)-amide] | 0.84 µM | – | 0.53 µM | – | – |
| COc1ccc(C2CCN(CC(O)C3(O)CCN(C(=S)Nc4ccc(Cl)c(Cl)c4)CC3)CC2)cc1 (stereo not shown) [Compound 117, 4-hydroxy-4-{1-hydroxy-2-[4-(4-methoxy-phenyl)-piperidin-1-yl]-ethyl}-piperidine-1-carbothioic acid (3,4-dichloro-phenyl)-amide] | 1.2 µM | – | 1.3 µM | – | – |
| COc1ccc(C2CCN(CC(O)C3(O)CCN(C(=S)Nc4cc(Cl)cc(Cl)c4)CC3)CC2)cc1 (stereo not shown) [Compound 118, 4-hydroxy-4-{1-hydroxy-2-[4-(4-methoxy-phenyl)-piperidin-1-yl]-ethyl}-piperidine-1-carbothioic acid (3,5-dichloro-phenyl)-amide] | 3.1 µM | – | 1.3 µM | – | – |
| OC(CN1CCC(c2c[nH]c3ccccc23)CC1)C1(O)CCN(c2nccc(C(F)(F)F)n2)CC1 (stereo not shown) [Compound 120, 4-{1-hydroxy-2-[4-(1H-indol-3-yl)-piperidin-1-yl]-ethyl}-1-(4-trifluoromethyl-pyrimidin-2-yl)-piperidin-4-ol] | – | – | 1.9 µM | – | 13% |
| OC(CN1CCC(c2nc3ccccc3[nH]2)CC1)C1(O)CCN(c2nccc(C(F)(F)F)n2)CC1 (stereo not shown) [Compound 121, 4-{2-[4-(1H-benzoimidazol-2-yl)-piperidin-1-yl]-1-hydroxy-ethyl}-1-(4-trifluoromethyl-pyrimidin-2-yl)-piperidin-4-ol] | – | – | – | 50% | 65% |
| Cc1ccc2[nH]cc(C3CCN(CC(O)C4(O)CCN(c5nccc(C(F)(F)F)n5)CC4)CC3)c2c1 (stereo not shown) [Compound 123, 4-{1-hydroxy-2-[4-(5-methyl-1H-indol-3-yl)-piperidin-1-yl]-ethyl}-1-(4-trifluoromethyl-pyrimidin-2-yl)-piperidin-4-ol] | – | – | 9.4 µM | – | 68% |
| N#Cc1ccc2[nH]cc(C3CCN(CC(O)C4(O)CCN(c5nccc(C(F)(F)F)n5)CC4)CC3)c2c1 (stereo not shown) [Compound 124, 3-(1-{2-hydroxy-2-[4-hydroxy-1-(4-trifluoromethyl-pyrimidin-2-yl)-piperidin-4-yl]-ethyl}-piperidin-4-yl)-1H-indole-5-carbonitrile] | – | – | 8.3 µM | – | 43% |
| O=C(/C=C/c1cc(F)c(F)c(F)c1)N1CCC(O)(C(O)CN2CCC(O)(c3ccc(F)cc3)CC2)CC1 (stereo not shown) [Compound 152] | – | – | 3.1 µM | – | 43% |
| O=C(/C=C/c1ccc(F)c(F)c1)N1CCC(O)(C(O)CN2CCC(O)(c3ccc(F)cc3)CC2)CC1 (stereo not shown) [Compound 153] | – | – | 0.73 µM | – | 12% |
| O=C(/C=C/c1ccc(Cl)c(Cl)c1)N1CCC(O)(C(O)CN2CCC(c3c[nH]c4ccc(N5CCOCC5)cc34)CC2)CC1 (stereo not shown) [Compound 169] | 5.4 µM | – | 0.79 µM | – | – |
| Cc1cccc(/C=C/C(=O)N2CCC(O)(C(O)CN3CCC(c4c[nH]c5ccc(N6CCOCC6)cc45)CC3)CC2)c1 (stereo not shown) [Compound 174] | – | – | 3.2 µM | – | 44% |
| O=C(/C=C/c1cc(F)c(F)cc1F)N1CCC(O)(C(O)CN2CCC(c3c[nH]c4ccc(N5CCOCC5)cc34)CC2)CC1 (stereo not shown) [Compound 175] | – | – | – | 70% | 24% |
| COc1cccc(/C=C/C(=O)N2CCC(O)(C(O)CN3CCC(c4c[nH]c5ccc(N6CCOCC6)cc45)CC3)CC2)c1 (stereo not shown) [Compound 177] | – | – | – | 53% | 27% |
| O=C(/C=C/c1ccsc1)N1CCC(O)(C(O)CN2CCC(c3c[nH]c4ccc(N5CCOCC5)cc34)CC2)CC1 (stereo not shown) [Compound 178] | – | – | – | 59% | 2% |
| OC(CN1CCC(c2c[nH]c3ccc(N4CCOCC4)cc23)CC1)C1(O)CCN(C(=S)Nc2cc(Cl)cc(Cl)c2)CC1 (stereo not shown) [Compound 182, 4-hydroxy-4-{1-hydroxy-2-[4-(5-morpholin-4-yl-1H-indol-3-yl)-piperidin-1-yl]-ethyl}-piperidine-1-carbothioic acid (3,5-dichloro-phenyl)-amide] | 5.4 µM | – | 4.9 µM | – | – |
| CC(=O)Nc1ccc2[nH]cc(C3CCN(CC(O)C4CCN(C(=O)OCc5ccccc5)CC4)CC3)c2c1 (stereo not shown) [Compound 184, 4-{2-[4-(5-acetylamino-1H-indol-3-yl)-piperidin-1-yl]-1-hydroxy-ethyl}-piperidine-1-carboxylic acid benzyl ester] | – | – | – | 61% | 13% |

Second part, led by results:

| IC50 [1] | IC50 [2] | IC50 (CCR2) | inhibition at 25 µM (CCR2) | Compound | inhibition at 25 µM [1] |
| --- | --- | --- | --- | --- | --- |
| 0.07 µM | 0.09 µM | 0.25 µM | – | COc1ccc(C2CCN(CC(O)C3(O)CCN(C(=O)/C=C/c4ccc(Cl)c(Cl)c4)CC3)CC2)cc1 (stereo not shown) [Compound 1] | – |
| 8 µM | – | 0.5 µM | – | O=C(/C=C/c1ccc(F)c(F)c1)N1CCC(O)(C(O)CN2CCC(c3ccc(F)cc3)CC2)CC1 (stereo not shown) [Compound 129] | – |
| 0.38 µM | – | 0.18 µM | – | O=C(/C=C/c1ccc(Cl)c(Cl)c1)N1CCC(O)(C(O)CN2CCC(c3ccc(F)cc3)CC2)CC1 (stereo not shown) [Compound 131] | – |
| – | – | 2.4 µM | – | O=C(Nc1ccc(F)c(F)c1)N1CCC(O)(C(O)CN2CCC(c3ccc(F)cc3)CC2)CC1 (stereo not shown) [Compound 132, 4-{2-[4-(4-fluoro-phenyl)-piperidin-1-yl]-1-hydroxy-ethyl}-4-hydroxy-piperidine-1-carboxylic acid (3,4-difluoro-phenyl)-amide] | 26% |
| – | – | 1.9 µM | – | O=C(Nc1ccc(Cl)c(Cl)c1)N1CCC(O)(C(O)CN2CCC(c3ccc(F)cc3)CC2)CC1 (stereo not shown) [Compound 134, 4-{2-[4-(4-fluoro-phenyl)-piperidin-1-yl]-1-hydroxy-ethyl}-4-hydroxy-piperidine-1-carboxylic acid (3,4-dichloro-phenyl)-amide] | 52% |
| 9.2 µM | – | 0.73 µM | – | OC(CN1CCC(c2ccc(F)cc2)CC1)C1(O)CCN(C(=S)Nc2ccc(Cl)c(Cl)c2)CC1 (stereo not shown) [Compound 135, 4-{2-[4-(4-fluoro-phenyl)-piperidin-1-yl]-1-hydroxy-ethyl}-4-hydroxy-piperidine-1-carbothioic acid (3,4-dichloro-phenyl)-amide] | – |
| 0.31 µM | – | 0.92 µM | – | O=C(/C=C/c1ccc(Cl)c(Cl)c1)N1CCC(O)(C(O)CN2CCC(c3ccc(C(F)(F)F)cc3)CC2)CC1 (stereo not shown) [Compound 139] | – |
| 2.1 µM | – | 0.35 µM | – | O=C(/C=C/c1ccc(Cl)c(Cl)c1)N1CCC(O)(C(O)CN2CCC(c3c[nH]c4ccc(F)cc34)CC2)CC1 (stereo not shown) [Compound 158] | – |
| 1.5 µM | – | 0.73 µM | – | O=C(/C=C/c1ccc(F)c(Br)c1)N1CCC(O)(C(O)CN2CCC(c3c[nH]c4ccc(F)cc34)CC2)CC1 (stereo not shown) [Compound 159] | – |
| 3.6 µM | – | 0.84 µM | – | O=C(CCc1ccc(Cl)cc1)N1CCC(O)(C(O)CN2CCC(c3c[nH]c4ccc(F)cc34)CC2)CC1 (stereo not shown) [Compound 160, 3-(4-chloro-phenyl)-1-(4-{2-[4-(5-fluoro-1H-indol-3-yl)-piperidin-1-yl]-1-hydroxy-ethyl}-4-hydroxy-piperidine-1-yl)-propan-1-one] | – |
| 17.2 µM | – | 4.4 µM | – | O=C(/C=C/c1ccc(Cl)cc1)N1CCC(O)(C(O)CN2CCC(c3c[nH]c4ccc(N5CCOCC5)cc34)CC2)CC1 (stereo not shown) [Compound 170] | – |
| – | – | 12.8 µM | – | O=C(/C=C/c1ccc(F)cc1)N1CCC(O)(C(O)CN2CCC(c3c[nH]c4ccc(N5CCOCC5)cc34)CC2)CC1 (stereo not shown) [Compound 171] | 22% |
| – | – | 3.7 µM | – | O=C(/C=C/c1ccc(F)c(F)c1)N1CCC(O)(C(O)CN2CCC(c3c[nH]c4ccc(N5CCOCC5)cc34)CC2)CC1 (stereo not shown) [Compound 172] | 46% |
| 1.2 µM | – | 0.91 µM | – | O=C(/C=C/c1ccc(F)c(Br)c1)N1CCC(O)(C(O)CN2CCC(c3c[nH]c4ccc(N5CCOCC5)cc34)CC2)CC1 (stereo not shown) [Compound 173] | – |
